# Laboratory results from article PMC9006293 (Blood Advances, 2022).
# Key:
# [1] = test system: DNIMV-specific T-cell hybridoma clones; experiment: Antigen-presentation assay, DNIMV-specific clones with fresh or fixed MGAR APCs; type: cell-based, mouse; conditions: fresh and paraformaldehyde-fixed MGAR APCs, 48 hours, ELISA
# HLA-DR molecules = conditions: FVIII-pulsed donor-derived human dendritic cells with diverse HLA-DRB1* molecules; cited from earlier work
# [2] = test system: PRCLT-specific T-cell hybridoma clones; experiment: Antigen-presentation assay, PRCLT-specific clones with fresh or fixed MGAR APCs; type: cell-based, mouse; conditions: fresh and paraformaldehyde-fixed MGAR APCs, 48 hours, ELISA
sequence,measurement,setting,value
DNIMVTFRNQASRPY,IL-2 response of DNIMV-specific clones,[1],activated
FRNQASRPY,HLA-DR binding,HLA-DR molecules,promiscuous pan-DR HLA-DR binding peptide
PRCLTRYYSSFVNME,IL-2 response of PRCLT-specific clones,[2],produced IL-2
